Measurements as given in patent US20140315936A1, “AP[…] PI COMBINATION THERAPY” (AVEXA LIMITED, priority 2011, published 2014).
Where two headings read alike, the source gives them in different places.

Tested on: HIV-1
Conditions: as part of an optimized regimen, plasma HIV-1 RNA
Description: Groups of HIV-1 positive patients were treated (as part of an optimized regimen) with ATC+either LPV or ATV, and compared to patients treated with 3TC+either LPV or ATV. Samples were taken after therapy to determine the number of patients who achieved an undetectable plasma HIV-1 RNA level (<50 copies/mL).

Row | Structure (SMILES) | Patients achieving <50 copies/mL, % (combined with 150 mg BID 3TC) | Patients achieving <50 copies/mL, n/N (combined with 150 mg BID 3TC) | Patients achieving <50 copies/mL, % (combined with 800 mg BID ATC) | Patients achieving <50 copies/mL, n/N (combined with 800 mg BID ATC)
1 | COC(=O)N[C@H](C(=O)N[C@@H](Cc1ccccc1)[C@@H](O)CN(Cc1ccc(-c2ccccn2)cc1)NC(=O)[C@@H](NC(=O)OC)C(C)(C)C)C(C)(C)C [ATV, methyl N-[(1S)-1-{[(2S,3S)-3-hydroxy-4-[(2S)-2-[(methoxycarbonyl)amino]-3,3-dimethyl-N′-{[4-(pyridin-2-yl)phenyl]methyl}butanehydrazido]-1-phenylbutan-2-yl]carbamoyl}-2,2-dimethylpropyl]carbamate] | 42.9% | 6/14 | 66.7% | 8/12
2 | Cc1cccc(C)c1OCC(=O)N[C@@H](Cc1ccccc1)[C@@H](O)C[C@H](Cc1ccccc1)NC(=O)[C@H](C(C)C)N1CCCNC1=O [LPV, Lopinavir] | 62% | 18/29 | 60% | 18/30
